Results from patent publication US20120289492A1, “METHODS OF TREATING MITOCHONDRIAL DISORDERS USING METALLOPORPHYRINS” (priority 2009, published 2012).

How the values were obtained:
[1] = system: mitochondrial SOD activity; assay: SOD2 activity assay in forebrain mitochondrial fractions; format: in vivo; settings: treated Sod2−/− mice vs Sod2+/+ mice (1.56±0.17 units/mg protein)
[2] = system: parietal cortex of Sod2−/− mice; assay: Histochemical analyses (H&E, Fluoro-Jade B) of Sod2−/− mouse brain; format: in vivo
[3] = Peroxynitrite-induced oxidation of dihydrorhodamine-123; format: biochemical; settings: peroxynitrite 1 μM, dihydrorhodamine 123 10 μM, pH 7.4
Text: Mitochondrial oxidative stress production To determine if increased oxidative stress occurred in mitochondrial fractions, the levels of CoASH, CoASSG, aconitase, ascorbate, cysteine, methionine and 3-NT were examined in the forebrain of Sod2 −/− mice at 15-16 days old. GSH is the most abundant thiol containing antioxidant in tissues and brain (Meister & Anderson (1983) Annu Rev Biochem 52, 711-60) and plays an important role in preventing oxidative damage. […] To determine if direct scavenging of ONOO− could result in decreased 3NT levels by AEOL11207, we measured its ability to inhibit ONOO-induced oxidation of dihydrorhodamine-123.
Measurement of peroxynitrite-induced oxidation of dihydrorhodamine-123 inhibition by metalloporphyrins The peroxynitrite-dependent oxidation of dihydrorhodamine-123 to rhodamine-123 is measured based on previously described methods (Kooy et al. (1994) Free Radic Biol Med 16, 149-56; Szabo, et al. (1996) FEBS Lett 381, 82-6). […] After 10 min incubation at room temperature, the fluorescence of rhodamine 123 was measured using a fluorimeter (Perkin-Elmer, Norwalk, Conn.) at an excitation wavelength of 500 nm, emission wavelength of 536 nm

[4] = Ames' test (mutagenicity); format: cell-based
Text: (§1) Safety profile: A prototypical metalloporphyrin (AEOL10150; FIG. 1) has completed phase 1 trials in amyotrophic lateral sclerosis patients. Extensive safety studies of this compound have been completed in mice, monkeys and rats. […] Safety studies for the structurally related compound, AEOL11207 need to be completed once its efficacy is established in animal studies.

mouse lymphoma = assay: Mouse lymphoma test (mutagenicity); format: cell-based
Text: as §1

[5] = system: forebrain of Sod2−/− mice; assay: Mitochondrial oxidative stress and bioenergetic indices in brain of Sod2−/− mice; format: in vivo
[6] = forebrain mitochondrial fraction of Sod2−/− mice

COC(=O)c1c2nc(c(C(F)(F)F)c3ccc([n-]3)c(C(=O)OC)c3nc(c(C(F)(F)F)c4ccc1[n-]4)C=C3)C=C2.[Cl-].[Mn+3] [AEOL11207]
Cyanide insensitive SOD activity compared to Sod2+/+ mice [1]: ~40%
Histopathological damage including vacuole size and number ([2]; H&E staining, Sod2−/− mice P15-16): decreased
neuronal degeneration (Fluoro-Jade B staining) ([2]; compared to vehicle treatment): Significant protection
attenuation of Fluoro-Jade B relative fluorescence density ([2]; parietal cortex of Sod2−/− mice, compared to vehicle treatment): ~50%
IC50 [3]: 3.7 µM
mutagenicity, Ames' test [4]: negative
mutagenicity, mouse lymphoma test (mouse lymphoma): negative
depletion of ascorbate ([5]; brains of Sod2−/− mice): significantly attenuated
depletion of glutathione ([5]; brains of Sod2−/− mice): significantly attenuated
decrease in cysteine [5, 6]: significantly attenuated
decrease in methionine [5, 6]: significantly attenuated
increased CoASSG ([5]; forebrain of Sod2−/− mice, 15-16 days old): significantly attenuated
decrease in glutamate transporter GLT-1 expression ([5]; hippocampus of Sod2−/− mice, Western blot): significantly attenuated
